Reference: patent US20130102499A1, “METHOD FOR DETERMINATION OF ACTIVITY OF MITOCHONDRIAL DNA POLYMERASE OF FALCIPARUM MALARIA, AND METHOD FOR SCREENING FOR ANTI-MALARIA COMPOUND” (OCHANOMIZU UNIVERSITY, priority 2010, published 2013)

Legend:
[1] = tested on: PFF1225c (C1 fragment), mitochondrial DNA polymerase; assay: DNA polymerase activity measurement of PFF1225c (C1 fragment), sensitivity to inhibitors; assay type: biochemical, Plasmodium falciparum; conditions: for inhibition action to the DNA polymerase activity: FIG. 12a, FIG. 13a
Experimental: When a ^3H amount taken in a DNA chain is measured with a liquid scintillation counter, the pigment of an iron ion causes quenching and an accurate measurement thus cannot be attained. Quenching is classified into three types such as chemical quenching, oxygen quenching, and coloration quenching, and calculation efficiency of a liquid scintillation counter decreases. The case of ^3H being a soft β ray particularly becomes a problem, and coloration quenching becomes a problem in the case of an iron ion. Thus, gallic acid that forms a complex with iron was used and gallic acid iron that is a purple complex was formed. […] The protocol in the case of adding an iron ion is shown below.
In order to prevent oxidation of iron, the reaction solution was exposed to a nitrogen gas for 30 minutes to be degassed.
The reaction solution obtained by adding 50 mM Tris-HCl (pH 7.5), 1 mM dTTP, 40 nM PolydA-dT12, and 10 mM FeCl2 and adjusted to be the total amount of 20 μl with degassed distilled water (DW). […] After the incubation, an iron ion was chelated by adding 10 μl of 100 mM EDTA to terminate the reaction. PicoGreen™ (Molecular Probes), which specifically binds to double-stranded DNA, was used in order to quantitatively determine an amount of DNA synthesized by the DNA polymerase.

[2] = tested on: DNA polymerase γ-like enzyme; conditions: Non-patent Document 5; cited from earlier work
[3] = tested on: apicoplast DNA polymerase (POMUPfprex); conditions: reported; cited from earlier work
DNA polymerase γ [4] = biological target: T1, DNA polymerase γ (Mus musculus, UniProt P54099); conditions: already reported; cited from earlier work
T1 sequence (P54099 1-1218): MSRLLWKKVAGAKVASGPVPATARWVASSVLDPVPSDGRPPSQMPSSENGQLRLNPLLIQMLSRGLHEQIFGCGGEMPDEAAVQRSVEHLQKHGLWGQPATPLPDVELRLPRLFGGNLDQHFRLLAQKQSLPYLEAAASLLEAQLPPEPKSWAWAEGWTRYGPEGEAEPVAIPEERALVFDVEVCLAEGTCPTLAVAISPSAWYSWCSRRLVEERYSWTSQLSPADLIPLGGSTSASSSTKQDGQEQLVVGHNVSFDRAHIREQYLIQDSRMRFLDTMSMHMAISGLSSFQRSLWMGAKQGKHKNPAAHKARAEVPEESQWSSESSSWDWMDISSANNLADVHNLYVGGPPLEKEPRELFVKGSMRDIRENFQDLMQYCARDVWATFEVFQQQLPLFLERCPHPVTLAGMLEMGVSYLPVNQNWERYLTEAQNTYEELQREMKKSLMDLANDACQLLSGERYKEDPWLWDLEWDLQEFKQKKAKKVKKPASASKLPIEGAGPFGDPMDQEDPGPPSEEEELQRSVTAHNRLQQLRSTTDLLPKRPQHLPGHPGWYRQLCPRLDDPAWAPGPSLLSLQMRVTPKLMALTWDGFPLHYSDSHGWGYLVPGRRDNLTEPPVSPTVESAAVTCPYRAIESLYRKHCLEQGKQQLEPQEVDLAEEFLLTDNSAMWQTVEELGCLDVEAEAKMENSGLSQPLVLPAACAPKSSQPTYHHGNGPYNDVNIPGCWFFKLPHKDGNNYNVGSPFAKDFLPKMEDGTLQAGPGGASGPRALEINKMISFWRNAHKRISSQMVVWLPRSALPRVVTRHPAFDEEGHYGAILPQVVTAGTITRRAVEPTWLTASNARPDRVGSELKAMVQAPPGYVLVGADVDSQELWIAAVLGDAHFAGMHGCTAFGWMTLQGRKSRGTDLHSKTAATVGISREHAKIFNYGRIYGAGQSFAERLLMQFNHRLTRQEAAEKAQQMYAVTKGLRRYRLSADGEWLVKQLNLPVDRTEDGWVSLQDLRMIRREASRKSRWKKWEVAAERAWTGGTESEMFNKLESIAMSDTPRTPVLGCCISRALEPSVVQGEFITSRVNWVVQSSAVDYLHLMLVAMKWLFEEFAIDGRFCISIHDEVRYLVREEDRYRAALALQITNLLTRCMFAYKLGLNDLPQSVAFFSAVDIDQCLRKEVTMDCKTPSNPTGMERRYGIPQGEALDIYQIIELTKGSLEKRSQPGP

[5] = biological target: T2, human mitochondrial DNA polymerase γ (Homo sapiens, UniProt P54098); assay: DNA polymerase activity, human mitochondrial DNA polymerase γ; assay type: biochemical; conditions: FIG. 12c
T2 sequence (P54098 1-1239): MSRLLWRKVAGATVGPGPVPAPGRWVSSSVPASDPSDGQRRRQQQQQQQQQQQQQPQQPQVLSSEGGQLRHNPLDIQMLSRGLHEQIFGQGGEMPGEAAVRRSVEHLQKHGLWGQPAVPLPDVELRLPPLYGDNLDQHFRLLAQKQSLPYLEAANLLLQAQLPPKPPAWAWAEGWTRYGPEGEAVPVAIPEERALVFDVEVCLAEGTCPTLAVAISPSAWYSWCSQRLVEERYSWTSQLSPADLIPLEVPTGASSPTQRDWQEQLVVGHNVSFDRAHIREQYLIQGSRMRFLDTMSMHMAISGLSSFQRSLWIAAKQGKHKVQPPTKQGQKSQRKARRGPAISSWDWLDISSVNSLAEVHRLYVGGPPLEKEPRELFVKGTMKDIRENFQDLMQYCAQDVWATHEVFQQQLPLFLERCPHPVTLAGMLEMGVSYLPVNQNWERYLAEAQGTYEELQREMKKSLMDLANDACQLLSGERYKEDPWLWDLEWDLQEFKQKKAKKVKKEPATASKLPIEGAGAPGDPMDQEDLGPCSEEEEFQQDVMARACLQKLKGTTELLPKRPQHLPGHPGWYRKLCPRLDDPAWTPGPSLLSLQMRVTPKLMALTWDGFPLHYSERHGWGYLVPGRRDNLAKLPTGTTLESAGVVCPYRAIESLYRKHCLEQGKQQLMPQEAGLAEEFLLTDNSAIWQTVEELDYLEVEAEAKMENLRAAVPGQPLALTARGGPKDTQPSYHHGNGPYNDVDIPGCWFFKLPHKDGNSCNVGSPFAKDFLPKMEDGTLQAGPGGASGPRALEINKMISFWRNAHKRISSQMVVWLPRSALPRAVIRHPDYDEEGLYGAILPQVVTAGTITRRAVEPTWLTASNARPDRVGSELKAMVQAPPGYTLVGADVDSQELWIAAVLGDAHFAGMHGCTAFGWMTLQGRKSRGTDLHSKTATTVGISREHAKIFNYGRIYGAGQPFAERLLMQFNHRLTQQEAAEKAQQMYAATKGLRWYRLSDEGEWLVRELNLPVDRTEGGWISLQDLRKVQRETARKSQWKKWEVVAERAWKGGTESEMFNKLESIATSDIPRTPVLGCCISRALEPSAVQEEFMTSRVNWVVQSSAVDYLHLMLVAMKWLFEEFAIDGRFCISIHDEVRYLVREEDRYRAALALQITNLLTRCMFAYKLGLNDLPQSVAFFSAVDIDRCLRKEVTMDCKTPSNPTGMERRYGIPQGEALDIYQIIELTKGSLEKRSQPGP
Experimental: 0.1 μg of a C1 fragment was added per 10 μl. The mixed reaction solution was incubated at 37° C. for 30 minutes, then adsorbed to filter paper, dried, and washed with 5% Na2HPO4 4 times (for 10 minutes for each washing), thereafter washing twice with distilled water (DW) (for 5 minutes for each washing), and finally shaken with 100% ethanol for 5 minutes. The filter paper was then dried and the dried filter paper was contained in a vial container charged with 4 ml of a toluene cocktail, and an intake amount of ^3H was measured with a liquid scintillation counter.

PpPolA = conditions: FIG. 12b
Experimental: A reaction solution was obtained by adding 50 mM Tris-HCl, 0.5 mM dATP, dGTP, dCTP, 5 μM dTTP, activated DNA (0.5 μg/ml), 0.8 μM [^3H]dTTP (Moravek Co.: (MT-781) Thymidine 5′-triphosphate, tetrasodium salt, [methyl ^3H]), and an enzyme solution was further added thereto, a metallic ion, an inhibitor, etc. having respective concentrations (the total amount of 10 μl). 0.1 μg of a C1 fragment was added per 10 μl. The mixed reaction solution was incubated at 37° C. for 30 minutes, then adsorbed to filter paper, dried, and washed with 5% Na2HPO4 4 times (for 10 minutes for each washing), thereafter washing twice with distilled water (DW) (for 5 minutes for each washing), and finally shaken with 100% ethanol for 5 minutes. The filter paper was then dried and the dried filter paper was contained in a vial container charged with 4 ml of a toluene cocktail, and an intake amount of ^3H was measured with a liquid scintillation counter.

mouse DNA polymerase α = biological target: T3, mouse DNA polymerase α (Mus musculus, UniProt P33609); conditions: already reported; cited from earlier work
T3 sequence (P33609 1-1465): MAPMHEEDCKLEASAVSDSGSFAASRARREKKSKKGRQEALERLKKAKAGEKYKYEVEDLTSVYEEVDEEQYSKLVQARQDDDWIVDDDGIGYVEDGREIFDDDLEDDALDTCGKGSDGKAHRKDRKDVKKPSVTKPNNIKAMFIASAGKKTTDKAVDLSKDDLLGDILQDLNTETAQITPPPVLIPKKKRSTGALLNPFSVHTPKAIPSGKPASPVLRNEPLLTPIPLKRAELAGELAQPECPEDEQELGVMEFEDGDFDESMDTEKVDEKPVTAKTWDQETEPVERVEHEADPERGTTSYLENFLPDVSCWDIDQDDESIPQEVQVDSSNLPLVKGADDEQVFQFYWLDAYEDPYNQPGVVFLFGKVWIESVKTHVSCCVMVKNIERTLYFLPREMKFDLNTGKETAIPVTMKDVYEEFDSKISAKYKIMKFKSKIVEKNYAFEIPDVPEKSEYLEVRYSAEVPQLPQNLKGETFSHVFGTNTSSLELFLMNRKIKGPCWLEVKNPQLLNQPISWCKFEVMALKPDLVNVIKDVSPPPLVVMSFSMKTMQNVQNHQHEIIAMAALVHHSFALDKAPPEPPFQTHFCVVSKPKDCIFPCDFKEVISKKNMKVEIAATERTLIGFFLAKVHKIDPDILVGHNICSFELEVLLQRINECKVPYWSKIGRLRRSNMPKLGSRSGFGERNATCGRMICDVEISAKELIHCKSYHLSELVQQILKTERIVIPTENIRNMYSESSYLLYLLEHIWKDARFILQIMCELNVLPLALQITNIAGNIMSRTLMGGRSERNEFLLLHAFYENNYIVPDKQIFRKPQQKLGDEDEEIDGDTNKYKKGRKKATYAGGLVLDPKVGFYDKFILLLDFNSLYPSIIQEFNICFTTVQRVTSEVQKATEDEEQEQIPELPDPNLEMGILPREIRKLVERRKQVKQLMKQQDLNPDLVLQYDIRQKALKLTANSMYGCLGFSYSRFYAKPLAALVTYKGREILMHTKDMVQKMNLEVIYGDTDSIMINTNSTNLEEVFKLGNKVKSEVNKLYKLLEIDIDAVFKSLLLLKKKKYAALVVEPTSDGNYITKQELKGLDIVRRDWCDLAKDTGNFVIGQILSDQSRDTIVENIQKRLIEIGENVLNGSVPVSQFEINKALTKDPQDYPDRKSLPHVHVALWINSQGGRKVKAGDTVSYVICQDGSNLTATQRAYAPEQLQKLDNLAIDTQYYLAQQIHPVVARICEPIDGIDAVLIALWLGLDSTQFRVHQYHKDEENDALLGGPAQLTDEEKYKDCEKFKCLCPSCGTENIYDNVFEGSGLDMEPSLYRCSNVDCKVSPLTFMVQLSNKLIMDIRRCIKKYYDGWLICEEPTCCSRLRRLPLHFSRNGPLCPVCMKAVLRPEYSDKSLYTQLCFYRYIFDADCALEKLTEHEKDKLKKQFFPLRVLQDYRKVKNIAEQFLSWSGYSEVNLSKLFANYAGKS

DNA polymerase γ [6] = biological target: T4, DNA polymerase γ (Homo sapiens, UniProt P54098); conditions: at a concentration from 50 to 100 mM; reported; cited from earlier work
T4 sequence (P54098 1-1239): T2 sequence (P54098 1-1239)

various DNA polymerases = conditions: reported; binds non-specifically; cited from earlier work

CCN1C(=O)C=CC1=O [NEM, N-ethylmaleimide]
DNA polymerase activity on addition of inhibitor ([1]; in the presence at a high concentration, FIG. 11c): the activity scarcely decreased | sensitivity or resistance of the enzyme to inhibitor [2]: sensitivity

Nc1ncnc2c1ncn2CCOCP(=O)(O)OP(=O)(O)OP(=O)(O)O [PMEApp]
sensitivity or resistance of the enzyme to inhibitor [2]: resistance

C[C@@]1(CO)[C@H](O)CC[C@@]2(C)[C@H]1CC[C@H]1C[C@@H]3C[C@@]12CC[C@]3(O)CO [aphidicolin]
DNA polymerase activity on addition of inhibitor ([1]; added at a concentration from 10 to 100 μM, FIG. 11b): the activity scarcely decreased | sensitivity or resistance of the enzyme to inhibitor [2]: resistance

CCN(CC)CCCC(C)Nc1ccnc2cc(Cl)ccc12 (stereo not drawn) [chloroquine]
inhibition action to the DNA polymerase activity [1]: inhibited the activity | inhibition of DNA polymerase activity [3]: inhibitors | inhibition of DNA polymerase activity (DNA polymerase γ [4]): does not inhibit | inhibition action to the DNA polymerase activity [5]: an inhibition effect was not shown | inhibition action to the DNA polymerase activity (PpPolA): an inhibition effect was not shown | inhibition of DNA polymerase activity (mouse DNA polymerase α): does not inhibit

Cc1cn([C@H]2CC[C@@H](COP(=O)(O)OP(=O)(O)OP(=O)(O)O)O2)c(=O)[nH]c1=O [ddTTP]
inhibition effect on DNA polymerase activity ([1]; along with increasing concentration, FIG. 11d): a weak inhibition effect was shown | remaining DNA polymerase activity ([1]; concentration increased to 400 mM, FIG. 11d): 50% | inhibition of DNA polymerase activity (DNA polymerase γ [6]): mostly inhibited | sensitivity or resistance of the enzyme to inhibitor [2]: resistance

Cc1ccc(C(=O)Nc2ccc(S(=O)(=O)O)c3cc(S(=O)(=O)O)cc(S(=O)(=O)O)c23)cc1NC(=O)c1cccc(NC(=O)Nc2cccc(C(=O)Nc3cc(C(=O)Nc4ccc(S(=O)(=O)O)c5cc(S(=O)(=O)O)cc(S(=O)(=O)O)c45)ccc3C)c2)c1 [suramin]
inhibition action to the DNA polymerase activity [1]: inhibited the activity | inhibition of DNA polymerase activity [3]: inhibitors | inhibition of DNA polymerase activity (various DNA polymerases): inhibits the activities
